This is an account of results in US11453647B2, “Benzimidazole derivatives as adenosine receptor antagonists” (Merck Patent GmbH, priority 2017, dated 2022).

Holding throughout (assay type): cell-based
The target of experiment [1] is T1, human A3 receptor (Homo sapiens, UniProt P0DMS8).
T1 construct: expressed in transfected cells; host or cells: CHO
T1 sequence (P0DMS8 1-318): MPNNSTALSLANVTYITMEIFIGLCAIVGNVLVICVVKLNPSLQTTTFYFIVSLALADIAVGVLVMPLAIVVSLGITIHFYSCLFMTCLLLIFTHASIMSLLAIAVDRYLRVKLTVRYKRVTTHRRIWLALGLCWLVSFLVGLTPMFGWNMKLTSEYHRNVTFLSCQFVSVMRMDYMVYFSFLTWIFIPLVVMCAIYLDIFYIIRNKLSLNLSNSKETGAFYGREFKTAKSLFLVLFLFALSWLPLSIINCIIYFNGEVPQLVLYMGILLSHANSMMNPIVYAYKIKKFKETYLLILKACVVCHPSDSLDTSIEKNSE
Kind of experiment: functional cAMP (HTRF) assay, recombinant CHO cells expressing human A3 receptor, forskolin, agonist IB-MECA. Summed up: (§1)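 Recombinant CHO lines carrying either receptor receive forskolin, compound and the matching agonist, CPA or IB-MECA. After 30 min, HTRF reagents are added and cAMP is quantified. Values are normalized to inhibitor and neutral DMSO controls, then fitted.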
(In general: Time-resolved FRET reads energy transfer from a long-lived donor to a nearby acceptor.)

The target of experiment [2] is T2, human A2A receptor (Homo sapiens, UniProt P29274).
T2 construct: expressed in transfected cells; host or cells: HEK293
T2 sequence (P29274 whole entry): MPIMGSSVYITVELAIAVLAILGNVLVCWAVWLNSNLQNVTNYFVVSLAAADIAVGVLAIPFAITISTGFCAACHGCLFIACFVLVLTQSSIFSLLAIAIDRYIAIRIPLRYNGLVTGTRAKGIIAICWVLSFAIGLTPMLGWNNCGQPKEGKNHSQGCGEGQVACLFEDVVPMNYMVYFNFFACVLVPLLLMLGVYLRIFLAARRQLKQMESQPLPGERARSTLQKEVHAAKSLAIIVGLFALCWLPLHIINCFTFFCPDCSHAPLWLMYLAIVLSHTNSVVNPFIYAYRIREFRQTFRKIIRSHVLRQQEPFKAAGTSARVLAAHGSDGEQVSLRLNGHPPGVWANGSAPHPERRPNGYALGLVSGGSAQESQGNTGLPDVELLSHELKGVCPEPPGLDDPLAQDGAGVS
Kind of experiment: functional cAMP (HTRF) assay, recombinant HEK293 cells expressing human A2A receptor, agonist NECA.

Experiment [3] concerns the target T3, A2B receptors (Homo sapiens, UniProt P29275).
T3 sequence (P29275 1-332): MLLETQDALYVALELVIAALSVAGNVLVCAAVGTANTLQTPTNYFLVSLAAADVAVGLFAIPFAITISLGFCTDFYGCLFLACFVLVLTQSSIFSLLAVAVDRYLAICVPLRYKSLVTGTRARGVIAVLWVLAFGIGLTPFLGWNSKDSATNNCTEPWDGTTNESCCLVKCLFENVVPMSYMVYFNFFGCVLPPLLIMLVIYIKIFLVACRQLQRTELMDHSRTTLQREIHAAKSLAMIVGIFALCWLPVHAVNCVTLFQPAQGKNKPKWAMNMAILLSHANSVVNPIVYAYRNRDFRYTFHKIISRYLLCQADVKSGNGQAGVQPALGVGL
Kind of experiment: functional cAMP (HTRF) assay, recombinant HEK293 cells expressing human A2B receptor, agonist NECA. Also on record: expressed in transfected cells; host or cells: HEK293.

The target of experiment [4] is T4, human A1 receptor (Homo sapiens, UniProt P30542).
T4 construct: expressed in transfected cells; host or cells: CHO
T4 sequence (P30542 1-326): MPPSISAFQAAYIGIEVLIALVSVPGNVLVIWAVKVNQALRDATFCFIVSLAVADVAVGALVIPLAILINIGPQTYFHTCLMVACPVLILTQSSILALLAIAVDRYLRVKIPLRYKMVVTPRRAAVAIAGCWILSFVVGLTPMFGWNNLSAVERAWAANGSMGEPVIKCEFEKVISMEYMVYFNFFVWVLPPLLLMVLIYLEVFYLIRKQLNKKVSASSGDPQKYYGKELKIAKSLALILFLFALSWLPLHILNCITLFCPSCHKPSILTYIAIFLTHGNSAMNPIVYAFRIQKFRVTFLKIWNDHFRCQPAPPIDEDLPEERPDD
Kind of experiment: functional cAMP (HTRF) assay, recombinant CHO cells expressing human A1 receptor, forskolin, agonist CPA. Summed up: as §1

A word on the IC50: it is the concentration that inhibits the measured activity by half. Turning to `COc1ccc(C2CCCCC2)c2nc(NC(=O)N3CCC(C)(O)CC3)[nH]c12` [compound 16, 4-Hydroxy-4-methyl-piperidine-1-carboxylic acid (4-cyclohexyl-7-methoxy-1H-benzoimidazol-2-yl)-amide], the IC50 in experiment [1] was under 1000 nM; in experiment [2] it was under 10 nM; in experiment [3], over 1000 nM; in experiment [4], over 1000 nM.
Turning to `COc1ccc(-c2cccnc2)c2[nH]c(NC(=O)c3c[nH]cn3)nc12` [compound 268, N-[4-methoxy-7-(pyridin-3-yl)-1H-1,3-benzodiazol-2-yl]-1H-imidazole-4-carboxamide], the IC50 was over 1000 nM in experiment [1], under 10 nM in experiment [2], under 100 nM in experiment [3] and over 1000 nM in experiment [4].
On to `COc1cc(F)c(C2=CCOCC2)c2nc(NC(=O)c3cnn(C)c3)[nH]c12` [compound 264, N-[4-(3,6-dihydro-2H-pyran-4-yl)-5-fluoro-7-methoxy-1H-1,3-benzodiazol-2-yl]-1-methyl-1H-pyrazole-4-carboxamide], for which the IC50 in experiment [1] was under 1000 nM; in experiment [2], under 10 nM; in experiment [3], under 100 nM; in experiment [4], over 1000 nM.
As for `COc1ccc(C2CCOCC2)c2nc(NC(=O)N3CCC(O)(Cc4ccccc4)CC3)[nH]c12` [compound 103, 4-benzyl-4-hydroxy-N-[7-methoxy-4-(oxan-4-yl)-1H-1,3-benzodiazol-2-yl]piperidine-1-carboxamide], the concentration for half-maximal inhibition (IC50) in experiment [1] is over 1000 nM; in experiment [2] it was under 10 nM; in experiment [3] it was under 1000 nM; in experiment [4] it was under 1000 nM.
On to `COc1ccc(-c2ccccc2F)c2nc(NC(=O)c3ccc(C(=O)N(C)C)cc3)[nH]c12` [compound 242, N4-[4-(2-fluorophenyl)-7-methoxy-1H-1,3-benzodiazol-2-yl]-N1,N1-dimethylbenzene-1,4-dicarboxamide], for which the half-inhibitory concentration (IC50) in experiment [1] was under 1000 nM; in experiment [2], under 10 nM; in experiment [3], under 10 nM; in experiment [4] it was under 1000 nM.
Turning to `COc1ccc(-c2cccc3[nH]ncc23)c2nc(NC(=O)N3CCC(C)(O)CC3)[nH]c12` [compound 271, 4-hydroxy-N-[4-(1H-indazol-4-yl)-7-methoxy-1H-1,3-benzodiazol-2-yl]-4-methylpiperidine-1-carboxamide], the IC50 was over 1000 nM in experiment [1], under 100 nM in experiment [2], under 100 nM in experiment [3] and over 1000 nM in experiment [4].
Consider `COCc1ccc(C(=O)Nc2nc3c(-c4cnn(C)c4)ccc(OC)c3[nH]2)cc1` [compound 49, N-[7-methoxy-4-(1-methyl-1H-pyrazol-4-yl)-1H-1,3-benzodiazol-2-yl]-4-(methoxymethyl)benzamide], for which the IC50 in experiment [1] is under 100 nM; in experiment [2] it was under 10 nM; in experiment [3], under 1000 nM; in experiment [4], over 1000 nM.
For `COc1ccc(-c2cnn(C)c2)c2nc(NC(=O)c3ccc(CN(C)C)cc3)[nH]c12` [compound 48, 4-[(dimethylamino)methyl]-N-[7-methoxy-4-(1-methyl-1H-pyrazol-4-yl)-1H-1,3-benzodiazol-2-yl]benzamide], the concentration for half-maximal inhibition (IC50) was over 1000 nM in experiment [1], under 10 nM in experiment [2], over 1000 nM in experiment [3] and over 1000 nM in experiment [4].
As to `COc1ccc(-c2cnn(C)c2)c2nc(NC(=O)c3ccc(CN4CCOCC4)cc3)[nH]c12` [compound 152, N-[7-methoxy-4-(1-methyl-1H-pyrazol-4-yl)-1H-1,3-benzodiazol-2-yl]-4-[(morpholin-4-yl)methyl]benzamide], the IC50 in experiment [1] was under 1000 nM; in experiment [2] it was under 100 nM; in experiment [3] it was under 1000 nM; in experiment [4] it was over 1000 nM.
With `COc1ccc(-c2ccccc2)c2nc(NC(=O)c3ccc(N4CCOCC4)nc3)[nH]c12` [compound 8, N-(7-Methoxy-4-phenyl-1H-benzoimidazol-2-yl)-6-morpholin-4-yl-nicotinamide], the IC50 was under 1000 nM in experiment [1], under 10 nM in experiment [2], over 1000 nM in experiment [3] and over 1000 nM in experiment [4].
